Measured values taken from patent US20250326725A1, “PI4-Kinase Inhibitors and Methods of Using the Same” (The Board of Trustees of the Leland Stanford Junior …, priority 2019, published 2025).

Key:
lung cancer cell lines [1] = assay: PI4P levels in lung cancer cell lines; type: cell-based, human; conditions: panel of lung cancer cell lines
Procedure: (§1) Human lung cancer cells (A549, H1299, H460, H23, H2122, and H3122) were cultured in RPMI 1640 containing 10% FBS. Cells were maintained at 37° C. in an incubator with a humidified atmosphere containing 5% CO2.
(§2) To assess the anti-cancer activity of exemplary PI4K antagonists, a panel of lung cancer cell lines annotated for the presence or absence of PI4K amplifications were treated with PI4K inhibitors (IN-9, TN-10, or compound B) that have greater than 1000-fold selectivity […] PI4KIIIβ over class I and class III PI3K family members. […] IC50 values were even lower with the presence of PI4K amplifications.
(§3) PI4KIIIβ is a target in human cancers, including lung adenocarcinoma. (FIG. 1A). PI4P concentrations in H2122 cells (dots) treated in triplicate (dots) with Compound B or vehicle dimethyl sulfoxide (DMS). (FIG. 1B) Relative densities of PI4-kinase-amplified (red) and -diploid (black) human lung adenocarcinoma cell lines determined by WST-1 assays after 5 days of Compound B treatment. Results expressed relative to the lowest dose, which was set at 100%. (FIG. 1B, right panel) Half maximal inhibitory (IC50) concentrations of compound B determined from FIG. 1B, left panel. (FIG. 1C) Migrated and invaded 1-23 human lung adenocarcinoma cells in Transwell chambers were photographed (images) and counted (bar graphs) after treatment with compound B. Results expressed relative to DMSO-treated cells, which were set at 1.0. (FIG. 1C, right panel). Colonies formed by H2122 human lung cancer cells in soft agarose (FIG. 1D) and on plastic (FIG. 1E) were photographed (images) and counted (bar graphs) after 7 days of treatment with the indicated doses of compound B or vehicle DMSO (0 M). Results expressed relative to DMSO control, which were set at 1.0. PI4-kinase inhibition leads to selective cytotoxicity for cancer cells (FIG. 1F).

[2] = tested on: BK virus (Polyomaviridae); assay: BK virus antiviral assay (EC50); type: cell-based; conditions: Betapolyomavirus hominis
[3] = Cell toxicity (CC50) in HPV assay
[4] = tested on: Human HPV (Papillomaviridae); assay: Human HPV antiviral assay (EC50); type: cell-based, human papilloma virus; conditions: Human papillomavirus, read-out: Human HPV (Papillomaviridae) EC50
PI4KIIIbeta = biological target: T1, PI4KIIIbeta (Bos taurus, UniProt O02810); assay: PI-kinase assay, PI4KIIIbeta (Table 4); type: biochemical, bovine
T1 construct: made in house; host or cells: COS-7 cells, transient transfection, anti-HA immunoprecipitate on protein G Sepharose beads
T1 sequence (O02810 whole entry): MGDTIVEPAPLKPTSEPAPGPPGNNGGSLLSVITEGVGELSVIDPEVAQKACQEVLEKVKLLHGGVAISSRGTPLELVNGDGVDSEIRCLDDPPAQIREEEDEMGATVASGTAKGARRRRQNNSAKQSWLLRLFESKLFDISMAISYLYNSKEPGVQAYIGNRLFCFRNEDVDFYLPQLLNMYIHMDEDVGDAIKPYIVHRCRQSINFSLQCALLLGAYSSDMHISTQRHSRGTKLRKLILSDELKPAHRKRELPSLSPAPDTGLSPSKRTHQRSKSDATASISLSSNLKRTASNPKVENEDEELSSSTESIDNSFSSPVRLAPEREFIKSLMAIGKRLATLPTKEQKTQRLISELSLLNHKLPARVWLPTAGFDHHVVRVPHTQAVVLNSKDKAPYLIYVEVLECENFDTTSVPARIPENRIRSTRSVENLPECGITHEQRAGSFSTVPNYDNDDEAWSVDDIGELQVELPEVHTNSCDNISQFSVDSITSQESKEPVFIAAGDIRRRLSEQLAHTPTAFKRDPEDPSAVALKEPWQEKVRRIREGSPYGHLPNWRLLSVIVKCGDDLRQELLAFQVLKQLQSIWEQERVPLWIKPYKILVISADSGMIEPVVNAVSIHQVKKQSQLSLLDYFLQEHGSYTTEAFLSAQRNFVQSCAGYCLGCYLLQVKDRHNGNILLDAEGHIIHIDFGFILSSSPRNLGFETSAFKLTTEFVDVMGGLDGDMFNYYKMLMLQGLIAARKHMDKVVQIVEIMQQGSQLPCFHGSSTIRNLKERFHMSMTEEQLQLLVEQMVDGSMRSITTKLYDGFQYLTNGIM
Procedure: (§4) PI-kinase assay: Compounds are tested in C.1.1. PT kinase assays as described by Shokat et al., “A membrane capture assay for lipid kinase activity.” Nat. Protoc. 2007; 2(10):2459-66.
(§5) General methods of materials: In the assays described here, p110α-p85 complex and p110γ were acquired from Millipore. Assays were performed with La-phosphatidylinositol (Avanti) as described in Knight et al. Nat Protoc. 2007; 2 (10):2459-66. Inhibitor series were prepared 10% DMSO as 5× stocks for the assay. Assays of HsVps34 were performed as described in Knight et al, except that the final assay buffer composition used was changed to 20 mM HEPES 7.5, 100 mM NaCl, 3 mM MgCl, 1 mg/mL PI and 44 nM hvps34 was used in the assay. […] COS-7 cells were cultured in 10 cm dishes and transfected at 70% confluence with 10 μg of plasmid DNA (HA-tagged bovine PI4KIIIβ. HA-tagged human PI4KIIIα) using Lipofectamine 2000 and 5 ml Opti-MEM following the manufacturer's instructions. After 5 hours the transfection medium was replaced with 10 ml complete DMEM. 36 hrs post transfection, cells were washed once with 5 ml PBS (pH 7.4) and lysed in 1 ml of lysis buffer (1) on ice. Lysates were collected by scraping and after 15 min they were centrifuged at 13.000 rpm for 10 min. To the lysates was added 200 gi of protein G Sepharose 4 fast flow beads that were prewashed with PBS and lysis buffer and 2 sg of anti-HA antibody. The tubes were then incubated overnight at 4 degrees C. in a tube rotator. The Sepharose beads in the lysate were washed twice with 150 mM NaCl in RIPA buffer, twice with RIPA buffer and once with kinase buffer (50 mM Tris/HCl, pH 7.5, 20 mM MgCl2, 1 mM EFTA, 1 mM PtdIns, 0.4% Triton X-100, 0.5 mg/mL BSA) and finally the beads were resuspended in 200 μL kinase buffer. Kinase reactions were run in a mixture of 45 μL of PI buffer (1 mM P1 in kinase buffer), 10 μL of immunoprecipitated beads, 2 µL of inhibitors (dissolved and diluted in DMSO) or DMSO and 5 μL of [γ-^32P]-ATP (1 mM and 2 μCi/tube). The immunoprecipitates in PI buffer were pre-incubated with the drugs for 20 min prior the initiation of kinase reaction by adding ATP and the reactions were carried out for 30 min in 15 ml polyproplyene tubes. Reactions were terminated by addition of 3 ml of CHCl3:CH3OH:HCl (200:100:0.75) followed by 0.6 ml of 0.61N HCl to induce phase separation. The mixtures were vortexed, centrifuged at 2000 rpm for 2 min and the upper phase was discarded. To the lower phase was added 1.5 ml of CHCl3:CH3OH:0.6N HCl (3:48:47) and the mixture vortexed and centrifuged at 2000 rpm for 2 ruin. The lower phase was then transferred to counting vials and evaporated. Samples were counted in a scintillation beta counter after adding 5 ml of Instafluor (Perkin-Elmer).
(§6) Selected compounds of Tables 1-3 were prepared and tested for inhibition activity in a variety of kinase assays.

[5] = tested on: H2122 human orthotopic lung tumors; assay: H2122 human orthotopic lung tumors in nu/nu mice; type: in vivo; conditions: 20 or 40 mg/kg plus 20 mg/kg ritonavir, subcutaneously twice daily for three weeks
Procedure: Mice received standard care and were euthanized according to the standards set forth by the Institutional Animal Care and Use Committee. To generate orthotopic lung tumors using human lung adenocarcinoma cell lines, nu/nu mice (n=10 mice per cohort) were subjected to intrathoracic injection with 10^6 human tumor cells, necropsied after a week or more of treatment, and primary tumor size and the number of metastases on the contralateral lung surface measured. […] Drugs were administered subcutaneously twice daily for three weeks. On the last day of treatment, mice were subjected to micro-computed tomography to measure primary tumor size. The following day, mice were necropsied to measure primary tumor size, count metastases to the contralateral lung, and obtain lung tissues for analysis. […] Drugs were administered intraperitoneally twice daily for 8 days. On the last day of treatment, mice were subjected to micro-computed tomography to measure primary tumor size. The following day, mice were necropsied to measure primary tumor size, count metastases to the contralateral lung, and obtain lung tissues.

[6] = Cell toxicity (CC50) in BK virus assay
lung cancer cell lines [7] = assay: Colony formation in soft agar and on plastic; type: cell-based, human; conditions: panel of lung cancer cell lines
Procedure: as §1, §2, §3

EV-71 virus = assay: Survival of AG129 mice challenged with EV-71; type: in vivo; conditions: EV-71 10^6.5 CCID50/mouse i.p., treated b.i.d. for five days per os starting four hours post-infection
Procedure: FIG. 4 illustrates the survival of four-week-old AG129 mice challenged with EV-71 virus and treated with exemplary Compound B. Groups of eight AG129 nice were challenged with EV-71 at 10^6.5 CCID50/mouse via the i.p. route. Mice were treated b.i.d. for five days per os with doses of Compound B as shown, starting four hours post-infection. Placebo-treated mice received a vehicle control on the same schedule. Mice treated with IVIg, as a positive control, received a single administration of 100 mg/kg via the i.p. route four hours post-infection. […] (*P<0.05, **P<0.01).

PI4KIIIalpha = biological target: T2, PI4KIIIalpha (Homo sapiens, UniProt P42356); assay: PI-kinase assay, PI4KIIIalpha (Table 4); type: biochemical
T2 construct: made in house; host or cells: COS-7 cells, transient transfection, anti-HA immunoprecipitate on protein G Sepharose beads
Procedure: as §4, §5, §6

lung cancer cell lines [8] = assay: Migration and invasion in Boyden chambers; type: cell-based, human; conditions: panel of lung cancer cell lines
Procedure: as §1, §2, §3

lung cancer cell lines [9] = assay: Cell proliferation in monolayer culture (WST-1); type: cell-based, human; conditions: panel of lung cancer cell lines
Procedure: as §1, §2, §3

PI3KC2γ = PI3KC2γ (Homo sapiens, UniProt O75747); conditions: cited from earlier work
PI3KC2γ, sequence (O75747 whole entry, species assumed): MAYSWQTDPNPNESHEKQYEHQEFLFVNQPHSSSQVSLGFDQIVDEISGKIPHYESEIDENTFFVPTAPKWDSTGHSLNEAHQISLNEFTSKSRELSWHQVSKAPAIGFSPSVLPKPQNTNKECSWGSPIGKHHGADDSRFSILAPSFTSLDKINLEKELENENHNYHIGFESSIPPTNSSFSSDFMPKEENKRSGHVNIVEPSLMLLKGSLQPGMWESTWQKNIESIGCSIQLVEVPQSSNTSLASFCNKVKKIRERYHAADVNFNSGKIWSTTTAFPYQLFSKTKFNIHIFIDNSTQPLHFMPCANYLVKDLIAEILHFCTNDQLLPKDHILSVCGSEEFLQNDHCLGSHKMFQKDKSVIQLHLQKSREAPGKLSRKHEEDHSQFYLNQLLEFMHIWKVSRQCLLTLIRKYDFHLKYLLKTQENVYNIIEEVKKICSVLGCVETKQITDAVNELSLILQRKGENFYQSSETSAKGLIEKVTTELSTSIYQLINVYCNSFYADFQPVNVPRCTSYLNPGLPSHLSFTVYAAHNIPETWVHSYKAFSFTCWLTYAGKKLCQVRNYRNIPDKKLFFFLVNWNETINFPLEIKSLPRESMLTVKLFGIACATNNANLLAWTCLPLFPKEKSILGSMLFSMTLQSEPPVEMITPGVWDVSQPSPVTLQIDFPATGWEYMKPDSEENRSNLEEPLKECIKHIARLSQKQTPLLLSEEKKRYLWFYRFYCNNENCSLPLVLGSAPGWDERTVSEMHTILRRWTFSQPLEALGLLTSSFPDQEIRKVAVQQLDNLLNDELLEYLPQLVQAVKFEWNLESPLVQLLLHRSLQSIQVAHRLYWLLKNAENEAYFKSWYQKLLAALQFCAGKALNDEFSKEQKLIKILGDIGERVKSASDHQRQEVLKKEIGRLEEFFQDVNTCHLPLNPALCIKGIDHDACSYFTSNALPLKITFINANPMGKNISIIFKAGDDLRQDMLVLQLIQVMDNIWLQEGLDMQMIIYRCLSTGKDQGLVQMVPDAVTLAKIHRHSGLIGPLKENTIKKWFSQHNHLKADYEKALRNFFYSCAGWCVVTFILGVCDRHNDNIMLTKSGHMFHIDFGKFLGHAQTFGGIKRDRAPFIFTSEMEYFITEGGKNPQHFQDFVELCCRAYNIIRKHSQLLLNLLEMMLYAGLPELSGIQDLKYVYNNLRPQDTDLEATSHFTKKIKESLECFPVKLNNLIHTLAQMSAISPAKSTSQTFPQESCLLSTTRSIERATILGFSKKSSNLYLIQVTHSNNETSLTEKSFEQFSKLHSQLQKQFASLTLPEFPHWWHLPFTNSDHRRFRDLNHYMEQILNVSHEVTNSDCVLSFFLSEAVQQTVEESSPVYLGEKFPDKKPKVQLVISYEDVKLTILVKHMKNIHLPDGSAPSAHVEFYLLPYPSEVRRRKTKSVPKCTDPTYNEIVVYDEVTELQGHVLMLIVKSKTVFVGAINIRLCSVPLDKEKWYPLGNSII

PI4K2β = PI4K2β (Homo sapiens, UniProt Q8TCG2); conditions: at concentrations up to 20 μM; cited from earlier work
PI4K2β, sequence (Q8TCG2 whole entry): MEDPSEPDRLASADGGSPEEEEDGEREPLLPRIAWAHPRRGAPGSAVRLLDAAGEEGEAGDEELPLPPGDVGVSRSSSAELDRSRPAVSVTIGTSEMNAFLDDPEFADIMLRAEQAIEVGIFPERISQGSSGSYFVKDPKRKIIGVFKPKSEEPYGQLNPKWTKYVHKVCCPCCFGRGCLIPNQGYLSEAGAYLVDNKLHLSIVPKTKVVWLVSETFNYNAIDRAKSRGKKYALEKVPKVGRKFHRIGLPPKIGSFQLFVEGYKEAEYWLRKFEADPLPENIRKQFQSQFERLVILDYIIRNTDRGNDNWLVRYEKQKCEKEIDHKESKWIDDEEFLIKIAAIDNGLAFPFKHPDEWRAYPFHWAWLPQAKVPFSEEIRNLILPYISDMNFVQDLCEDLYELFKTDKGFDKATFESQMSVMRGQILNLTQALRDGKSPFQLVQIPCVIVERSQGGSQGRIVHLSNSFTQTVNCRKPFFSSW

PI3Kβ = PI3Kβ (Homo sapiens, UniProt P42338); conditions: at concentrations up to 20 μM; cited from earlier work
PI3Kα = PI3Kα (Homo sapiens, UniProt P42336); conditions: cited from earlier work
PI3Kα, sequence (P42336 whole entry, species assumed): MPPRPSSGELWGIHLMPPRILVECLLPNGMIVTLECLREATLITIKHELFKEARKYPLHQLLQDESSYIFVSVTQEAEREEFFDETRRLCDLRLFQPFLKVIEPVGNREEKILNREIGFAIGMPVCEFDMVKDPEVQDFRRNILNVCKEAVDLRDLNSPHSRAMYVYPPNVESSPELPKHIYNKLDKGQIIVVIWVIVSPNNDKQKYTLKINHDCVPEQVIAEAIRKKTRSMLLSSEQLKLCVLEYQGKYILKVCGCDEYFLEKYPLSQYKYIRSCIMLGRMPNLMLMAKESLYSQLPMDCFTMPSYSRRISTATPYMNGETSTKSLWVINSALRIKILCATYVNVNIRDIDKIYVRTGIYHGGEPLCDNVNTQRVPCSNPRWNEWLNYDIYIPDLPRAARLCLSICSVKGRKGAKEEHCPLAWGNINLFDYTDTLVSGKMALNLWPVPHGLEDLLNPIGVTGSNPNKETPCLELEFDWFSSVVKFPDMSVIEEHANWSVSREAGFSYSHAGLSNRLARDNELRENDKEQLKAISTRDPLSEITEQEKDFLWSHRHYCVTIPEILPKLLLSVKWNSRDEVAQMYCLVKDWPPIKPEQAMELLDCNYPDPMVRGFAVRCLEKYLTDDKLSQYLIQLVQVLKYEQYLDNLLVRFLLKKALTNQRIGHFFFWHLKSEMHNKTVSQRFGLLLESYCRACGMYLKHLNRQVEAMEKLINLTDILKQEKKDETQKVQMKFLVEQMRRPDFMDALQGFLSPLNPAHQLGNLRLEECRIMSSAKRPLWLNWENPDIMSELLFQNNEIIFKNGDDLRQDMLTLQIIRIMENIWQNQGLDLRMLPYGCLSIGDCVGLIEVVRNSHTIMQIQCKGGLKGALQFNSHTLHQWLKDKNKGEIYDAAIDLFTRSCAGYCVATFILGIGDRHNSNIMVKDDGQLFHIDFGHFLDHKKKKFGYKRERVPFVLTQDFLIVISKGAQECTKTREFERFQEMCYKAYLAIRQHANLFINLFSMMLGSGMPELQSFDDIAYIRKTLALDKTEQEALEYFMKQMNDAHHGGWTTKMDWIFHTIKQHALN
PI3Kα, sequence (P27986 whole entry partner, species assumed): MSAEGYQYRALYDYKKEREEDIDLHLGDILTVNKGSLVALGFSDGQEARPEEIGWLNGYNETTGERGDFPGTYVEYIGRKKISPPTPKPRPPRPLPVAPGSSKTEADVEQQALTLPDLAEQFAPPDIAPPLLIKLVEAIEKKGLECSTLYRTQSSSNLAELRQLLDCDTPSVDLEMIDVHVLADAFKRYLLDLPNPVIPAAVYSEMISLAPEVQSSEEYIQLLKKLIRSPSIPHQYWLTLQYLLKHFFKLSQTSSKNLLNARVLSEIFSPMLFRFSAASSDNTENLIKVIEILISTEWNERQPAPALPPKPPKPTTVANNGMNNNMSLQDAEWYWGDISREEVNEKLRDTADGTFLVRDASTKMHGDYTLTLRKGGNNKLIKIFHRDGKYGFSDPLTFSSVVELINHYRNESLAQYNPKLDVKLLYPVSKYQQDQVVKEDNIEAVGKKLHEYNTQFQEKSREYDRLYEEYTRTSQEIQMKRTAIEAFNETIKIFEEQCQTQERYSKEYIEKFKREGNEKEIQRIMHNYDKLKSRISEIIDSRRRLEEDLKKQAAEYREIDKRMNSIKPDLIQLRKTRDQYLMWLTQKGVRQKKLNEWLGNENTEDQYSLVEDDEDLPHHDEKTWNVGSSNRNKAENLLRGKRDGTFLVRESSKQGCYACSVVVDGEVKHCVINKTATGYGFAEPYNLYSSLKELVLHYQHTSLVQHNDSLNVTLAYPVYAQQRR

PI4K2α = PI4K2α (Homo sapiens, UniProt Q9BTU6); conditions: at concentrations up to 20 μM; cited from earlier work
PI4K2α, sequence (Q9BTU6 whole entry): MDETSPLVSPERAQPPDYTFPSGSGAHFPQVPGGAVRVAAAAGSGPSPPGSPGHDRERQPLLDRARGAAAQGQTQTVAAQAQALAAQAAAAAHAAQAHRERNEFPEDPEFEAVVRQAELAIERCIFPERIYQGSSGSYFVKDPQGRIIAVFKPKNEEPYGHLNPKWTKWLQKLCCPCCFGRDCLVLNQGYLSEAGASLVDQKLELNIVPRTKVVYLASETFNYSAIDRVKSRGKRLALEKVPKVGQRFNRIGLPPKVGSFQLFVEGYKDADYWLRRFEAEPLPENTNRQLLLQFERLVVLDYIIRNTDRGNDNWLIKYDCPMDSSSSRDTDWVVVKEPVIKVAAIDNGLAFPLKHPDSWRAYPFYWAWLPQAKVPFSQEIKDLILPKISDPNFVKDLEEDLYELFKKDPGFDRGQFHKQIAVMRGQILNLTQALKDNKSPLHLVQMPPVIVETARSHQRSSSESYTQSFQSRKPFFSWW

COc1ccc(-c2sc(NC(C)C3CCOCC3)nc2C)cc1S(=O)(=O)Nc1ccccc1Cl (stereo not shown) [Compound B]
PI4P levels (lung cancer cell lines [1]): decreased PI4P levels in a dose-dependent fashion | EC50 [2]: 0.019 µM | CC50 [3]: 131 µM | EC50 [4]: 2.1 µM | IC50 (PI4KIIIbeta): < 0.1 µM | metastases [5]: No metastases were detectable | sizes of the primary tumors vs vehicle alone [5]: smaller | CC50 [6]: > 100 µM | colony formation in soft agar and on plastic (lung cancer cell lines [7]): reduced | survival (EV-71 virus): A dose response was observed in survival | IC50 (PI4KIIIalpha): > 10 µM | migration and invasion in Boyden chambers (lung cancer cell lines [8]): reduced | cell proliferation in monolayer culture (lung cancer cell lines [9]): reduced cell proliferation in monolayer culture

COc1ccc(-c2sc(NC(=O)C(C)(C)C)nc2C)cc1S(=O)(=O)Nc1ccc(O)cc1 [PI4KIIIbeta-IN-10]
PI4P levels (lung cancer cell lines [1]): decreased PI4P levels in a dose-dependent fashion | IC50 (PI3KC2γ): ~1 µM | inhibition of PI4K2β (PI4K2β): < 20% | inhibition of PI3Kβ (PI3Kβ): < 20% | colony formation in soft agar and on plastic (lung cancer cell lines [7]): reduced | IC50 (PI3Kα): ~10 µM | migration and invasion in Boyden chambers (lung cancer cell lines [8]): reduced | inhibition of PI4K2α (PI4K2α): < 20% | cell proliferation in monolayer culture (lung cancer cell lines [9]): reduced cell proliferation in monolayer culture
